Data: paper PMC5238504 (Scientific Reports, 2017)

Assays:
[1] = target: T1, M2 muscarinic receptor (M2 wt) (Homo sapiens, UniProt P08172); test: slowing of [3H]NMS dissociation by cold NMS, CHO membranes; format: binding; conditions: second site; allosteric; apparent affinity for the receptor-[3H]NMS complex; slope factor nH fitted; pH […] °C, […] NaCl, […] MgCl2
T1 construct: gene CHRM2
T1 sequence (P08172 1-466): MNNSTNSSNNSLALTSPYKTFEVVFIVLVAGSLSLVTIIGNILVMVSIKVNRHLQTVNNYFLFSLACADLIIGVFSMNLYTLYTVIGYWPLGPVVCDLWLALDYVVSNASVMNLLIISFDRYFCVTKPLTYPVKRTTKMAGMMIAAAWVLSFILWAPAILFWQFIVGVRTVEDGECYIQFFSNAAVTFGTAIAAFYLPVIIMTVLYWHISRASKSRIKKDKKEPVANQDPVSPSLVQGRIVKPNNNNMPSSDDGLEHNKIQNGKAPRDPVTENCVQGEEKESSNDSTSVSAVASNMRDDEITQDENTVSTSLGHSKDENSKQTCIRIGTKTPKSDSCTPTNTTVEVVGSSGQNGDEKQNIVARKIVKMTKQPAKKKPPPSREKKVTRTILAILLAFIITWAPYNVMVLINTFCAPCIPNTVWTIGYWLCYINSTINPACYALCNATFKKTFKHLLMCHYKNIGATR

M5 muscarinic receptor = target: T2, M5 muscarinic receptor (Homo sapiens, UniProt P08912); test: as above; format: binding; conditions: second site; allosteric; apparent affinity for the receptor-[3H]NMS complex; slope factor nH fitted; pH […] °C, […] NaCl, […] MgCl2
T2 construct: gene CHRM5; expressed in CHO cells, membranes; species printed only for M2 and M3
T2 sequence (P08912 1-532): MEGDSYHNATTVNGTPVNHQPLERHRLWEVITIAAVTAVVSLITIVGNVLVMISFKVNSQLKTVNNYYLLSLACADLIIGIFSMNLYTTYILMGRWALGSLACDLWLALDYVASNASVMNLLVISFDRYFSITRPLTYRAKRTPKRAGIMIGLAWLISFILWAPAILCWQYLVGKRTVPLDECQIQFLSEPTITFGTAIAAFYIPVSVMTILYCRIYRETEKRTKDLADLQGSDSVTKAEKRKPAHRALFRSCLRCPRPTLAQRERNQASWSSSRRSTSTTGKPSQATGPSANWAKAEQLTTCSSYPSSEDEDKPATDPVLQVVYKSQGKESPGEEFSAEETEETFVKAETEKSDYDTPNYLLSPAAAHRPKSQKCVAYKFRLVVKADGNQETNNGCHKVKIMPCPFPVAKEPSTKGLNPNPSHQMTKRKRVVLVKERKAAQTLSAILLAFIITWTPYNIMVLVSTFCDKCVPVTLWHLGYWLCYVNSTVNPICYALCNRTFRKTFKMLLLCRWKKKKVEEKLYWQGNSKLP
Source text: slowing of [3H]NMS dissociation by cold NMS, CHO membranes on M5 muscarinic receptor

## C[N+]1(C)[C@@H]2C[C@@H](OC(=O)[C@H](CO)c3ccccc3)C[C@H]1[C@@H]1O[C@@H]12 [N-methylscopolamine]
[1]
  NMS / pKA: 3.62 ± 0.03 negative logarithm
M5 muscarinic receptor
  NMS / pKA: 3.86 ± 0.03 negative logarithm
